Values quoted from earlier work, collected in patent US20240398684A1, “HIGH UV PROTECTION CLEANSING COMPOSITION” (Conopco, Inc., d/b/a UNILEVER, priority 2020, published 2024).

conditions: Reference: Photochem. Photobiol. Sci., 2010,9, 464-469

Row | absorption maxima [nm] | Compound
1 | 302 | O=S(=O)(O)c1ccc2[nH]c(-c3ccccc3)nc2c1 [PBSA, Phenyl benzimidazole sulphonic acid]
2 | 345 | CC1(C)C2CCC1(CS(=O)(=O)O)C(=O)C2=Cc1ccc(C=C2C(=O)C3(CS(=O)(=O)O)CCC2C3(C)C)cc1 [TDSA, Terephthalylidene dicamphor sulfonic acid]

Row | Compound | absorption maxima [nm]
3 | O=S(=O)([O-])c1cc(S(=O)(=O)O)cc2[nH]c(-c3ccc(-c4nc5c(S(=O)(=O)[O-])cc(S(=O)(=O)O)cc5[nH]4)cc3)nc12.[Na+].[Na+] [BD, Di sodium phenyl dibenzimidazole tetra sulfonate] | 335
